Source: patent publication US20240252486A1, “ALGOSTATIC AGENTS FOR PREVENTING TRANSITION FROM ACUTE TO CHRONIC PAIN” (The Regents of the University of California, priority 2021, published 2024)
“Also recorded” adds a separate entry of the source.

How the values were obtained:
[1] = test system: activated leukocytes; details: topical application; cited from earlier work
[2] = test system: formalin-injected mice; assay: Formalin-induced chronic pain-like state (CPLS): persistent hypersensitivity to heat and mechanical stimuli; type: in vivo, mouse; details: for pain chronification (contralateral hyperalgesia): GW7647 10 mg-kg^−1 IP, post-procedural day 2-4; for conversion to CPLS (contralateral hyperalgesia, PFD14): maximally effective dosages on PFD2-4: gabapentin 50 mg-kg^−1 IP, morphine 10 mg-kg^−1 subcutaneous, ketamine 4 mg-kg^−1 IP, ketoprofen 100 mg-kg^−1 IP, WT mice, formalin; for alleviation of the hypersensitive state (contralateral hyperalgesia): mouse, in vivo
[3] = in vivo; cited from earlier work
[4] = test system: mice and rats; details: cited from earlier work; for sensory abnormalities caused by carrageenan injection, ultraviolet B-radiation or CCI: mice and rats
[5] = test system: fibrosarcoma-bearing mice; details: cited from earlier work
[6] = test system: DRG neurons co-cultured with fibrosarcoma cells; details: cited from earlier work
[7] = test system: PEA levels in diseased tissues of CCI and tumor-bearing mice; details: cited from earlier work
[8] = test system: formalin-injected mice; assay: Formalin-induced paw edema; type: in vivo, mouse; details: pretreatment; ARN16186 10 mg-kg^−1 IP, ARN19702 30 mg-kg^−1 IP; wild-type mice, 1% formalin
Experimental: Paw edema was measured with a digital caliper (Fisher Scientific, USA) and is expressed as the difference (A paw thickness, mm) between ipsilateral and contralateral paws.

[9] = test system: naïve animals; assay: Baseline nociceptive thresholds in naïve animals; type: in vivo, mouse; details: ARN19702 30 mg-kg^−1 IP, ARN16186 10 mg-kg^−1 IP
[10] = test system: formalin-injected mice; assay: Formalin test: acute nocifensive behavior; details: pretreatment; ARN16186 10 mg-kg^−1 IP, ARN19702 30 mg-kg^−1 IP; wild-type mice, 1% formalin
[11] = test system: spinal-cord transcription; assay: RNA sequencing and metabolomic analysis of L4-L6 spinal cord; type: in vivo, mouse; details: GW7647, post-injury
Experimental: RNA sequencing and bioinformatics analysis: We extracted total RNA with the RNeasy Mini Kit (Qiagen). Samples with RNA integrity number ≥8.5 were kept for library construction. cDNA synthesis, amplification, library construction, and sequencing were performed at Novogene (Bejing, China) using the Illumina NovaSeq platform with paired-end 150 bp (PE 150) sequencing strategy. Downstream analysis was performed using a combination of programs including STAR, HTseq, Cufflink and Novogene's wrapped scripts. Alignments were parsed using the STAR program and differential expressions were determined using DESeq2/edgeR. Gene Ontology (GO) and Kyoto Encyclopedia of Genes and Genomes (KEGG) enrichment were implemented using the ClusterProfiler.
Metabolomic analysis: Metabolomics analyses were performed at the West Coast Metabolomics Center of the University of California Davis, as described^55. Briefly, frozen lumbar spinal cord (L4-L6) fragments (˜5 mg) were homogenized in Eppendorf tubes (2 ml) for 2 min using metal spheres ([…] diameter) in a MM300 mill (Retsch, Germany). A mixture of isopropanol/acetonitrile/water (3/3/2, vol) was added to the grounded tissue (1 ml per 20 mg), stirred for 10 s and shaken at 4° C. for 5 min. […]

[12] = molecular target: T1, PPAR-α (Homo sapiens, UniProt Q07869); details: activation of PPAR-α by exogenous PEA; cited from earlier work
T1 sequence (Q07869 1-468): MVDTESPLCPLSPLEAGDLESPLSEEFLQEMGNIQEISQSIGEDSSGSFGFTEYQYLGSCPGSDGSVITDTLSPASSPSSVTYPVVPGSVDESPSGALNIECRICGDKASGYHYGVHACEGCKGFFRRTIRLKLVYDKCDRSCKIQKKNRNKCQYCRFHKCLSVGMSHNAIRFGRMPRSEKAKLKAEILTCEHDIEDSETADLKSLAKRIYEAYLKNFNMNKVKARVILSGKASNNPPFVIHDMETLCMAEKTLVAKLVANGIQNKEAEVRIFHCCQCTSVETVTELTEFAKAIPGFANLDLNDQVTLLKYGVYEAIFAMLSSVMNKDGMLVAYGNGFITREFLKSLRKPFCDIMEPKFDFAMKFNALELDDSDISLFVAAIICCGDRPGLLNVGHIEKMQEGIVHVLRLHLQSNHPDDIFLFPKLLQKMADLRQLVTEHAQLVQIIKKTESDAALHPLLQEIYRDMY

[13] = test system: naïve mice; assay: Capsaicin-evoked nocifensive behavior; type: in vivo, mouse
Experimental: Capsaicin: Capsaicin or its vehicle was injected into the plantar surface of the left hind paw (20 μl) or left forepaw (10 μl), i.e. contralaterally to the formalin injection site. Nocifensive behavior was videorecorded for 10 min and evaluated under blinded conditions.

[14] = test system: macrophages; details: cited from earlier work
[15] = test system: rodents; details: male (but not female) rodents; cited from earlier work
[16] = test system: male rat model of type-1 diabetes; details: cited from earlier work

O=C(CCc1ccccc1)N[C@H]1COC1=O [(S)-OOPP]
PEA levels in activated leukocytes [1]: reinstates normal | inflammatory responses induced by carrageenan or endotoxin [1]: blunts

C[C@@H]1OC(=O)[C@@H]1NC(=O)OCCCCCc1ccccc1 [ARN077]
persistent hypersensitivity (CPLS) elicited by formalin ([2]; post-injury intrathecal infusion, 30 ng, 5 μL, at PFD2 and PFD4, assessed PFD14): stopped | crossing of the blood-brain barrier [3]: cannot cross; also recorded: does not cross | sensory abnormalities caused by carrageenan injection, ultraviolet B-radiation or CCI [4]: corrects | mechanical hypersensitivity [5]: reduces | calcium signaling [6]: rapidly normalizes | PEA levels in diseased tissues [7]: restores baseline

CCCCc1ccc(OC2C[C@H]3CC[C@@H](C2)N3S(=O)(=O)c2c(C)n[nH]c2C)cc1 (some centres unmarked) [ARN16186]
protective effects of ARN19702 against CPLS (contralateral hyperalgesia) ([2]; ARN16186 10 mg-kg^−1 IP once daily PFD1 to PFD3, male mice): mimicked | NAAA-null phenotype (weakened nocifensive response, no inflammation or persistent hypersensitivity after formalin) ([2]; pretreatment of wild-type mice, ARN19702 30 mg-kg^−1 IP, ARN16186 10 mg-kg^−1 IP): recapitulated | persistent contralateral hyperalgesia (PFD14) ([2]; pretreatment, ARN16186 10 mg-kg^−1 IP, ARN19702 30 mg-kg^−1 IP, wild-type mice, 1% formalin): prevents | paw edema (PFD14) [8]: prevents | baseline nociceptive thresholds [9]: Neither compound affected | nocifensive response to formalin [10]: prevents

CCC(=O)NC[C@H](Cc1ccc(OCCc2nc(-c3ccccc3)oc2C)cc1)N/C(C)=C\C(=O)c1ccc(C(F)(F)F)cc1 [GW6471]
loss of the ARN19702 effect on transition to CPLS ([2]; wild-type animals pretreated with GW6471 4 mg-kg^−1 IP, 15 min prior to ARN19702): replicated | effects of ARN077 on sensory abnormalities in the presence of the PPAR-α antagonist ([4]; rats): prevented

CC(C)(Sc1ccc(CCN(CCCCC2CCCCC2)C(=O)NC2CCCCC2)cc1)C(=O)O [GW7647]
pain chronification (contralateral hyperalgesia) ([2]; NAAA-overexpressing mice treated with 0.1% formalin): stopped | pain chronification (contralateral hyperalgesia) ([2]; wild-type mice treated with 1% formalin): stopped | injury-associated changes in spinal-cord transcription [11]: prevented

CCCCCCCCCCCCCCCC(=O)NCCO [PEA, palmitoylethanolamide]
CPLS ([2]; on PFD2-4, PEA 30 mg-kg^−1 subcutaneous, fenofibrate 100 mg-kg^−1 IP): blocked | sensory abnormalities caused by carrageenan injection, ultraviolet B-radiation or CCI [4]: mimicked | inflammation [12]: attenuates | mitochondrial respiration [12]: stimulates | pain [12]: attenuates

NC(=O)c1cccc(-c2cccc(OC(=O)NC3CCCCC3)c2)c1 [URB597]
emergence of formalin-induced CPLS (contralateral hyperalgesia and allodynia) ([2]; URB597 3 mg-kg^−1 IP once daily from PFD3 to PFD5, male mice): prevents the emergence

COc1cc(CNC(=O)CCCC/C=C/C(C)C)ccc1O [capsaicin]
median effective dose (ED50), nocifensive response ([13]; forepaw CPS injection, formalin-naïve mice): ~0.1 µg | half-maximal dose, nocifensive response ([13]; intraplantar hind paw injection): 0.1 µg

NCC1(CC(=O)O)CCCCC1 [gabapentin]
conversion to CPLS (contralateral hyperalgesia, PFD14) [2]: not mimicked; also recorded: failed to stop; also recorded: do not prevent; also recorded: fail to prevent | alleviation of the hypersensitive state (contralateral hyperalgesia) [2]: only temporarily alleviated

CNC1(c2ccccc2Cl)CCCCC1=O (centres unmarked) [ketamine]
conversion to CPLS (contralateral hyperalgesia, PFD14) [2]: not mimicked; also recorded: failed to stop; also recorded: do not prevent; also recorded: fail to prevent

CC(C(=O)O)c1cccc(C(=O)c2ccccc2)c1 (centres unmarked) [ketoprofen]
conversion to CPLS (contralateral hyperalgesia, PFD14) [2]: not mimicked; also recorded: failed to stop; also recorded: do not prevent; also recorded: fail to prevent

CN(C)C(=N)N=C(N)N [metformin]
macrophage phenotype shift toward glycolysis / trained immunity [14]: stopped | neuropathic pain [15]: prevents | therapeutic efficacy in painful peripheral neuropathy [16]: may exhibit therapeutic efficacy

CN1CC[C@]23c4c5ccc(O)c4O[C@H]2[C@@H](O)C=C[C@H]3[C@H]1C5 [morphine]
alleviation of the hypersensitive state (contralateral hyperalgesia) [2]: only temporarily alleviated
